Measured values taken from patent publication US20260076988A1 (The Cleveland Clinic Foundation, priority 2019, published 2026).

Experiments:
[1] = tested on: patient-derived AML cells; assay: Patient-derived xenotransplant (PDX) model of chemorefractory AML; conditions: for added benefit of ribonucleotide reductase inhibitor to THU+decitabine: dT 2 g/kg IP, hydroxyurea 100 mg/kg IP Day 1 before THU+decitabine days 2 and 3; for human CD45+ (hCD45+) AML cells in bone marrow: Day 45
Description: NSG mice were tail-vein inoculated with patient-derived AML cells (1×10^6 cells/mouse) and randomized to (i) PBS vehicle control; (ii) CDA-inhibition by intra-peritoneal (IP) tetrahydrouridine (THU) and de novo pyrimidine synthesis inhibition by IP thymidine (dT); (iii) Dec; (iv) THU and Dec; (v) THU, Dec and dT (n=5/group). PBS, THU+dT mice were euthanized for distress on D42, and other mice were sacrificed for analysis on D63. […] C) Bone marrow human (hCD45) and murine (mCd45) myelopoiesis content. Flow-cytometry. Median±IQR. p-value Mann-Whitney test 2-sided. […] Median±IQR. p-value Mann-Whitney test 2-sided.
NSG mice were tail-vein inoculated with patient-derived AML cells (1×10^6 cells/mouse) and on Day 9 after inoculation randomized to the treatments as shown (n=7/group). Mice were euthanized if there were signs of distress. A) Experiment schema; B) Time-to-distress and euthanasia. C) Bone marrow human (hCD45) and murine (mCd45) myelopoiesis content. Femoral bones flushed after euthanasia. Measured by flow-cytometry. Median±IQR. D) Spleen weights at time-of-distress/euthanasia. Median±IQR. E) Spleens at the time-of-distress/euthanasia.
NSG mice were tail-vein inoculated with patient-derived AML cells (1×10^6 cells/mouse) and randomized to the treatments shown (n=5/group). Blood counts were obtained periodically by tail-vein phlebotomy. Mice were euthanized for signs of distress. A) Experiment schema; B) Time-to-distress. Log-rank test. […] D) Bone marrow replacement by AML. Bone marrow human and murine CD45+ cells measured by flow-cytometry (FIG. 32) after euthanasia (time-points panel B). Median±IQR. p-value Mann-Whitney test 2-sided. […] Flow cytometry (FIG. 33).
C) Percentage of human CD45+ (huCD45) positive cells in bone marrow. Flow cytometry. Median±IQR. p-value Mann-Whitney test 2-sided. 5 mice in each treatment group analyzed.
Mice were euthanized for signs of distress. A) Experiment schema; B) Time-to-distress. p-value Log-rank test. C) Bone marrow human leukemia cell burden at time-of-distress. Flow cytometry for human CD45+ cells. Median±IQR. p-value Mann-Whitney test 2-sided. […] E) Spleen weights at time-of-distress. Median±IQR. p-value Mann-Whitney test 2-sided.
NSG mice were tail-vein inoculated with patient-derived AML cells (1×10^6 cells/mouse) and on Day 5 after inoculation randomized to the treatments as shown (n=7/group). Mice were euthanized if there were signs of distress.

[2] = tested on: AML cells (MOLM13, OCI-AML3, THP1); assay: AML cell proliferation after a single dose; type: cell-based; conditions: decitabine, deoxycytidine 0.5 μM, 5-azacytidine, cytidine 5 μM
Procedure: A) Experiment schema. Vehicle, natural deoxycytidine (dC) 0.5 uM, natural cytidine (C) 5 uM, Dec 0.5 uM, or 5Aza 5 uM were added once to AML cells at 0 hours. B) Cell counts. By automated counter. Means±SD for 3 independent biological replicates for each cell line. C) Dec and 5Aza have opposite effects on dCTP levels. Measured by LCMS/MS 24 hrs after addition of Dec or 5Aza. Analyses of 2 or more independent nucleotide extractions from 3 different AML cells lines. Means±SD; p-values paired t-test, 1-sided. D) Gene expression 72 hours after Dec or 5Aza. Gene expression by QRT-PCR, relative to average expression in vehicle-treated controls. Means±SD for 3 independent biological replicates in each of 3 AML cell lines; p-values unpaired t-test vs vehicle, 2-sided. E) Western blot 72 hours after Dec or 5Aza. AML cells THP1, OCI-AML3 and K562. Western blots were reproduced in three independent biological replicates.

Dck, Uck2, Cda and Cad [3] = assay: F1339 cells: pyrimidine metabolism enzyme expression by QRT-PCR and Western blot; type: cell-based, murine; conditions: lung cancer cells, within 72-96 hours
Procedure: FIG. 2. […] F1339 p53-null cancer cells were seeded at D0 and treated with DMSO, deoxycytidine (DC, 0.5 μM), cytidine (CY, 5 μM), Dec (0.5 μM) and 5Aza (5 μM). […] Cell counts by automated counter, mean±SD. […] Gene expression by Q-PCR, median±interquartile range (IQR) (3 biological replicates), *p<0.05, **p<0.01. 2-sided Mann-Whitney test. […] Western blot.
RNA was extracted using Trizol reagent (Invitrogen) before the generation of complementary DNA using the iScript™ cDNA Synthesis Kit (Bio-rad). Quantitative PCR was run on StepOnePlus Real-Time PCR System (Applied Biosystems), using comparative Ct value method to quantify the expression of target genes in different samples. Gene expression was normalized to the housekeeping gene β-actin.
Tumor cells were lysed with RIPA lysis buffer and protein concentrations determined by BCA protein assay kit (Thermo Fisher Scientific). Samples with equal quantity (40 μg) of total protein were mixed with 4× loading buffer and 10× sample reducing reagent (Thermo Fisher Scientific), subjected to electrophoresis on a 12% (v/v) SDS-polyacrylamide gel, then transferred onto polyvinylidene fluoride membranes. After blocking with 5% dried skimmed milk, the membranes were washed three times and incubated with primary antibodies at 4° C. overnight. After washing, the membranes were further incubated with corresponding horseradish peroxidase-conjugated secondary antibodies. The membranes were then treated with Pierce™ ECL substrates (Thermo Scientific) then visualized using X-ray film.

LL3 lung cancer cells = assay: Syngeneic disseminated lung cancer model (LL3, tail vein); type: in vivo, C57BL/6 mice
Description: (§1) 2-sided Mann-Whitney test.
as §1, §1

DNMT1 = assay: Serial patient bone marrow biopsies, DNMT1 immunohistochemistry; type: in vivo, human; conditions: 13 patients
Description: (§2) Serial bone marrow biopsies from the same patient were cut onto the same slide, stained for DNMT1, and the number of DNMT1-positive nuclei was quantified objectively using ImageIQ software in 13 patients and positive/negative controls (tissue blocks of HCT116 wild-type and DNMT1-knockout cells respectively). D=days of therapy. Pre-Rx=pre-treatment; HI=hematologic improvement; CR=complete remission; SD=stable disease; Rel.=relapse. Mean±SD of ×3 image segments (cellular regions) per sample; p-value paired t-test, 2-sided. C) Expression of key pyrimidine metabolism enzymes at relapse/progression on Dec. […] Bone marrow cells aspirated pre-treatment and at relapse/progression on Dec (13 patients, median duration of therapy 175 days, range 97-922) or 5Aza (14 patients, median duration of therapy 433 days, range 61-1155) were analyzed by QRT-PCR. Mean±SD technical replicates×3. Paired t-test, 2-sided. D) Expression by Western blot of DNMT1 and key pyrimidine metabolism enzymes in Dec-resistant AML cells (THP1, K562, OCI-AML3 and MOLM13), and in parental THP1 AML cells treated with vehicle, Dec or 5-azacytidine (5Aza). Western blots.
(§3) Study approvals. Bone marrow samples for research were obtained from patients with AML (Acute myeloid leukemia) with written informed consent on a study protocol approved by the Cleveland Clinic Institutional Review Board (Cleveland, Ohio). Murine experiments were approved by the Cleveland Clinic Institutional Animal Care and Use Committee (Cleveland, Ohio). Sources of cell lines and animals. […] DNMT1 Immuno-detection and quantitation: Immunohistochemistry (IHC) was performed on decalcified and formalin-fixed paraffin embedded bone marrow biopsy sections (4 μm) and on positive and negative controls (parental and DNMT1-KO HCT116 cells). […] Nuclei positive for DNMT1 were identified and quantified in high resolution, large field-of-view images per ImageIQ algorithms (Image IQ Inc., Cleveland, OH) after segmentation of images and subtraction of bone as has been previously described^4.

DCK, UCK2, CDA and CAD [4] = assay: Patients' bone marrow enzyme expression pre-treatment vs relapse, QRT-PCR; type: in vivo, human; conditions: MDS patients' bone marrow
Description: as §2
DNA isolation, reverse transcription (RT) and real-time PCR. As previously described^59. Primer sequences were:
CAD increased an average of ˜8-fold at relapse on either pro-drug, but not in all patients (FIG. 23C). The proliferation marker MKI67 increased at relapse in almost all the patients, consistent with active progression of disease (FIG. 23C).

[5] = tested on: parental HAP1 leukemia cells; assay: Growth inhibition of parental HAP1 leukemia cells; type: cell-based; conditions: Homo sapiens, HAP1, read-out: GI50 (concentration for 50% growth inhibition)
Description: (§4) A) DCK and UCK2 knockout (KO) were confirmed by Western blot. HAP1 leukemia cells, KO by CRISPR-Cas9. B) DCK-KO lowers dCTP and UCK2-KO lowers dTTP. Analysis of independent nucleotide extractions. Means±SD; p-values unpaired t-test, 2-sided. C) Sensitivity of Wildtype, DCK-KO and UCK2-KO HAP1 leukemia cells to Dec vs 5Aza. Means±SD of 3 independent biological replicates.
as §3

[6] = tested on: DCK-knockout HAP1 leukemia cells; assay: Growth inhibition of DCK-knockout HAP1 leukemia cells; type: cell-based; conditions: Homo sapiens, HAP1, read-out: GI50 (concentration for 50% growth inhibition)
Description: as §4, §3

[7] = tested on: UCK2-knockout HAP1 leukemia cells; assay: Growth inhibition of UCK2-knockout HAP1 leukemia cells; type: cell-based; conditions: Homo sapiens, HAP1, read-out: GI50 (concentration for 50% growth inhibition)
Description: as §4, §3

[8] = cited from earlier work
thoracic malignancies = conditions: cited from earlier work
[9] = THU+dT day 42, other treatments day 63

## Cc1cn([C@H]2C[C@H](O)[C@@H](CO)O2)c(=O)[nH]c1=O [dT, deoxythymidine]
[1]
  added benefit of ribonucleotide reductase inhibitor to THU+decitabine: did not add further to the benefit from THU

## Nc1ccn([C@@H]2O[C@H](CO)[C@@H](O)[C@H]2O)c(=O)n1 [cytidine]
[2]
  AML cell proliferation: did not impact proliferation

## Nc1ncn([C@H]2C[C@H](O)[C@@H](CO)O2)c(=O)n1 [decitabine]
Dck, Uck2, Cda and Cad [3]
  CDA upregulation: ~3 fold
  UCK2 upregulation: ~3 fold
LL3 lung cancer cells; treatment from day 21, Dec 0.2, THU-Dec 10/0.1, 5Aza 2, THU-5Aza 10/1 mg/kg sc 3×/wk
  increase of time-to-distress over vehicle: about 20 days
DNMT1
  decrease of DNMT1 protein at time-of-response compared to pre-treatment: ~50%
DCK, UCK2, CDA and CAD [4]
  decrease of DCK expression at relapse: ~50%
  increase of CDA expression at relapse: ~3 fold
  increase of UCK2 expression at relapse: ~8 fold
DCK, UCK2, CDA and CAD [4]; not in all patients
  average increase of CAD expression at relapse: ~8 fold
[5]
  GI50: 3 µM
[6]
  GI50: 12 µM
[7]
  GI50: 0.1 µM
[8]; in vivo
  in vivo plasma half-life: ~15 min
Thoracic malignancies; human, in vivo
  myelosuppression: grade ¾ myelosuppression
Thoracic malignancies; intravenous infusion, for ~72 hours
  sustained plasma concentration: > 40 nM
[1]; Dec 0.2 mpk SC Day 1 and 2 each week
  median survival (time-to-distress): 75 days
[1]; Dec 0.2 mpk SC Day 1 and 4 each week
  median survival (time-to-distress): 60 days
[1]; Dec 0.3 mpk SC Day 1 and 2 each week
  human CD45+ (hCD45+) AML cells in bone marrow: ~26%
[1]; Dec 0.3 mpk SC Day 1 and 4 each week
  human CD45+ (hCD45+) AML cells in bone marrow: ~63%
[1]; [9]
  bone marrow hCD45+: ~85%
  bone marrow murine Cd45+ (murine hematopoiesis): ~5%
[1]; day 63, on-therapy, flow cytometry
  DNMT1-depletion in bone marrow cells: ~35%
[1]; week-to-week alternation experiment (FIG. 28)
  median survival (time-to-distress): 111 days

## NC(=O)NO [hydroxyurea]
[1]
  added benefit of ribonucleotide reductase inhibitor to THU+decitabine: did not add further benefit to THU+decitabine

## O=C1NC(O)CCN1[C@@H]1O[C@H](CO)[C@@H](O)[C@H]1O (stereo partly drawn) [THU, tetrahydrouridine]
LL3 lung cancer cells; in vivo studies of murine lung cancer
  increase of efficacy of decitabine or 5-azacytidine by THU: ~2 fold
LL3 lung cancer cells; murine models of lung cancer
  myelosuppression: without bone marrow suppression
[8]; addition of THU
  increase of oral bioavailability of decitabine and 5-azacytidine: ~10 fold
  increase of plasma half-lives of decitabine and 5-azacytidine: ~10 fold

## Nc1ccn([C@H]2C[C@H](O)[C@@H](CO)O2)c(=O)n1 [deoxycytidine]
[2]
  AML cell proliferation: did not impact proliferation
